Experimental data from paper PMC10914731, “Homo-BacPROTAC-induced degradation of ClpC1 as a strategy against drug-resistant mycobacteria” (Nature Communications, 2024).
Values joined by “and” are separate entries in the source; they are usually repeats but may differ in a detail not shown here. Equal entries are not always repeated. Where two headings read alike, the source gives them in different places.

How the values were obtained:
[1] = molecular target: endogenous ClpC1 in Msm #607 cells (Mycolicibacterium smegmatis, UniProt A0R574); format: cell-based, M. smegmatis; details: for Total protein / ClpC1/Total protein / ClpC1 peak area: well replicates of independent experiments
Mycobacterium avium = experiment: microbe, parasite or virus in culture; format: cell-based
[2] = test system: replicating Mtb H37Rv cells; experiment: Resazurin growth assay, replicating Mtb H37Rv (Supplementary Fig. 2); format: cell-based, Mycobacterium tuberculosis; details: three replicate columns
[3] = molecular target: ClpC1-NTD substrate, M. tuberculosis ClpC1P1P2 (Mycobacterium tuberculosis, UniProt P9WPC9); experiment: biochemical; format: biochemical; details: Mtb; mean of the measurements; read-out: DC50, Mean
Enterobacter cloacae = experiment: MIC ESKAPES panel, Enterobacter cloacae; format: cell-based
Experimental: (§1) Minimum inhibitory concentration (MIC) against ESKAPES panel of Gram positive and Gram negative pathogens (Enterococcus faecium, Staphylococcus aureus, Klebsiella pneumoniae, Acinetobacter baumannii, Pseudomonas aeruginosa, Enterobacter cloacae and Salmonella typhimurium [ESKAPES panel]) were determined at the FNDR by the standard broth dilution method [CLSI, M100]. […] Mueller Hinton broth (MHB) medium was used to grow ESKAPES panel strains. The individual cultures were added as 200 μL (inoculum of 3–7 × 10^5 cfu/ml) to the respective assay plates in each well to all columns, except the media control (200 μL of medium). […] The assay plates were incubated at 37 °C, and the results were noted on the 2nd day as turbidometric readout. The clear wells indicated inhibition of growth, while the turbid wells indicated uninhibited growth.

[4] = format: in vitro ADME, Human; details: clearance in hepatocytes
[5] = molecular target: ClpC1 NTD protein (M. tuberculosis) (Mycobacterium tuberculosis, UniProt P9WPC9); experiment: biochemical; format: binding; details: SPR
Enterococcus faecium = experiment: MIC ESKAPES panel, Enterococcus faecium; format: cell-based
Experimental: as §1

Sequence of endogenous ClpC1 in Msm #607 cells (A0R574 whole entry): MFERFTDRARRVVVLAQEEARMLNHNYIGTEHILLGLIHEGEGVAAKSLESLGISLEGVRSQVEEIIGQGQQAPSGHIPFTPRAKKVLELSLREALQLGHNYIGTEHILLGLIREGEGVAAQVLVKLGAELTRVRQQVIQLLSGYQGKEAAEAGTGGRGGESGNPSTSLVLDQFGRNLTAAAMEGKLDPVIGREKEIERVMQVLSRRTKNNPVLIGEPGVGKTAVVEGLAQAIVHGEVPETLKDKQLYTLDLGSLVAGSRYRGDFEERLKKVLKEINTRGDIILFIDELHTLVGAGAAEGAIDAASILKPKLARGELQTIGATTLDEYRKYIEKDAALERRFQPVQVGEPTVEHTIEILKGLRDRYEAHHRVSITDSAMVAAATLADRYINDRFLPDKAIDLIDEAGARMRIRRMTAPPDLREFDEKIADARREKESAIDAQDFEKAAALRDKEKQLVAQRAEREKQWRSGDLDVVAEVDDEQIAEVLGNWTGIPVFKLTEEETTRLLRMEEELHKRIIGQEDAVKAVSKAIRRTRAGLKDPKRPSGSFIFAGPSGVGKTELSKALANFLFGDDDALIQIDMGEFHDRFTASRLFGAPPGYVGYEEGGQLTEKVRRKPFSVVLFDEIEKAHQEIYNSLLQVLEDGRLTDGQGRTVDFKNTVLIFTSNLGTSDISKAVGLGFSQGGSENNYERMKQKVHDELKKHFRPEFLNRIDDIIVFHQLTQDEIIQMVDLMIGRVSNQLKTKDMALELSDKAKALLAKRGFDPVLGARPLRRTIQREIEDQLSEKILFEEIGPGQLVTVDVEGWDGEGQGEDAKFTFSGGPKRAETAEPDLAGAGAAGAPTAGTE
Sequence of ClpC1 NTD protein (M. tuberculosis) (P9WPC9 1-156, looked up, natural form): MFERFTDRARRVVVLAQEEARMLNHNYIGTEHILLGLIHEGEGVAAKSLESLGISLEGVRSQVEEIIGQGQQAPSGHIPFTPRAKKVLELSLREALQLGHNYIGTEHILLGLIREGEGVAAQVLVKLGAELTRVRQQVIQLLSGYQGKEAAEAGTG
Sequence of ClpC1-NTD substrate, M. tuberculosis ClpC1P1P2 (P9WPC5 whole entry): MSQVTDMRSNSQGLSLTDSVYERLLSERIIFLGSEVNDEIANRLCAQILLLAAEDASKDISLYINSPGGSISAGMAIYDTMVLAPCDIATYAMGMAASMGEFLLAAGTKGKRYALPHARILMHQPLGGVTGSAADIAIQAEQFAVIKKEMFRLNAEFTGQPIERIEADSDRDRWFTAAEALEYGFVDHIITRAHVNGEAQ
Sequence of ClpC1-NTD substrate, M. tuberculosis ClpC1P1P2 (P9WPC9 whole entry): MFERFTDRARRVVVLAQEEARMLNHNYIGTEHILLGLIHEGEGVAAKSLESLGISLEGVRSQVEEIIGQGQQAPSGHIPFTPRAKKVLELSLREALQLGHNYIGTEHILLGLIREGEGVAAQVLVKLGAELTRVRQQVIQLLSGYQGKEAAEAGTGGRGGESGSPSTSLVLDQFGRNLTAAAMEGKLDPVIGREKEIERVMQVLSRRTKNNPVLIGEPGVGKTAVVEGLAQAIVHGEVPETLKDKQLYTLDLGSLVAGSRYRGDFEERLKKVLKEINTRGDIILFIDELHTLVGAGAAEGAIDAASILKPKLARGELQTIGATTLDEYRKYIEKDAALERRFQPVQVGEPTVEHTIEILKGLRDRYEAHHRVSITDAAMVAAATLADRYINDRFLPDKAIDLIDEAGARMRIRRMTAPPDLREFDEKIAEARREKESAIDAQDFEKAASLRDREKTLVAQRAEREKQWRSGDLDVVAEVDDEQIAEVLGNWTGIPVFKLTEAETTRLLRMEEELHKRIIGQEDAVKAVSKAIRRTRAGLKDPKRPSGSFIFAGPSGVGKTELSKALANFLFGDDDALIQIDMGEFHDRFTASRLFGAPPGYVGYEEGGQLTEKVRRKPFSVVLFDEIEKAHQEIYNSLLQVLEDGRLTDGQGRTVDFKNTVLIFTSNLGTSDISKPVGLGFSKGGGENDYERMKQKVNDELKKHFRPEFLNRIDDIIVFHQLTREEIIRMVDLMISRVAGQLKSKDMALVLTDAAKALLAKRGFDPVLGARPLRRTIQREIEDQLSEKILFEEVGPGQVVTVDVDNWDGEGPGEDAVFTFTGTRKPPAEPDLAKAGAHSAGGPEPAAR
Sequence of ClpC1-NTD substrate, M. tuberculosis ClpC1P1P2 (P9WPC3 whole entry, further chain): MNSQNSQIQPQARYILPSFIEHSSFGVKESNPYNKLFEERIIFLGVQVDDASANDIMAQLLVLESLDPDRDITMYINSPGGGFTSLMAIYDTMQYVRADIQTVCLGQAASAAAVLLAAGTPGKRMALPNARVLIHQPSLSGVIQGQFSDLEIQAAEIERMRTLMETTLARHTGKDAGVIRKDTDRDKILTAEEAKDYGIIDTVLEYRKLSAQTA

SMILES: COC(c1ccccc1)C1NC(=O)C(C)NC(=O)C(CC(C)CO)N(C)C(=O)C(Cc2cn(Cc3cn(CCOCCOCCOCCOCCn4cc(Cn5cc(CC6NC(=O)C(C(C)C)NC(=O)C(CC(C)C)N(C)C(=O)C(C(C)C)NC(=O)C(C(OC)c7ccccc7)NC(=O)C(C)NC(=O)C(CC(C)CO)N(C)C6=O)c6ccccc65)nn4)nn3)c3ccccc23)NC(=O)C(C(C)C)NC(=O)C(CC(C)C)N(C)C(=O)C(C(C)C)NC1=O (stereo not drawn) [Compound 8]
- Total protein ([1]; conc. 0.00305176 µM): 1340459 and 981268 and 1285339 and 1343857 and 1404470 and 1166366 and 526872 and 508500 and 521664
- ClpC1/Total protein ([1]; conc. 0.0244141 µM): 0.2203 and 0.2456 and 0.2539 and 0.1932 and 0.1901 and 0.2179 and 0.789 and 0.7808 and 0.8172
- ClpC1 peak area ([1]; conc. 0.0244141 µM): 219991 and 270896 and 315004 and 406280 and 373553 and 423254 and 300752 and 349284 and 304692
- Total protein ([1]; conc. 0.0244141 µM): 1364922 and 1422232 and 1199890 and 1138728 and 1425365 and 1445718 and 514950 and 478415 and 517944
- ClpC1/Total protein ([1]; conc. 0.195312 µM): 0.1965 and 0.2082 and 0.2171 and 0.1985 and 0.1828 and 0.1625 and 0.6454 and 0.6178 and 0.5924
- ClpC1 peak area ([1]; conc. 0.195312 µM): 206233 and 279281 and 214864 and 343404 and 327767 and 310653 and 236077 and 257791 and 242759
- Total protein ([1]; conc. 0.195312 µM): 1201296 and 1238340 and 1118172 and 1039169 and 1528116 and 1322136 and 532053 and 530512 and 524388
- ClpC1/Total protein ([1]; conc. 1.5625 µM): 0.183 and 0.1832 and 0.1776 and 0.1788 and 0.1391 and 0.1421 and 0.6251 and 0.5883 and 0.5813
- ClpC1 peak area ([1]; conc. 1.5625 µM): 199828 and 195826 and 198204 and 278984 and 250174 and 259931 and 291643 and 223291 and 227414
- Total protein ([1]; conc. 1.5625 µM): 1593808 and 1218853 and 1280312 and 1117747 and 1407385 and 1394918 and 446304 and 425280 and 447143
- ClpC1/Total protein ([1]; conc. 100 µM): 0.09806 and 0.1539 and 0.02961 and 0.1406 and 0.1399 and 0.1212 and 0.4923 and 0.5713 and 0.5017
- ClpC1 peak area ([1]; conc. 100 µM): 152582 and 201776 and 136372 and 183701 and 277792 and 199452 and 19555.5 and 216020 and 1024.1
- Total protein ([1]; conc. 100 µM): 199420 and 1403452 and 34585.2 and 1085305 and 1442135 and 1125592 and 373184 and 486260 and 397564
- DC50 ([1]; mean of the measurements, read-out: DC50 Mean): 571 nM
- MIC (Mycobacterium avium; Experiment 1, listed as 8 (UdSBI-0545), read-out: MIC Mycobacterium avium): >50 µM
- MIC (µg/ml) Mycobacterium avium (Mycobacterium avium; Experiment 2, three replicate columns): >108.53 µg/mL
- MIC (Mycobacterium avium; Experiment 2, three replicate columns, read-out: MIC (µM) Mycobacterium avium): >50 µM
- MIC (Mycobacterium avium; Mycobacterium avium, Experiment 1, read-out: MIC Mycobacterium avium): > 109 µg/mL
- MIC (Mycobacterium avium; Mycobacterium avium, Experiment 2, three replicate columns, read-out: MIC (µM) Mycobacterium avium): > 50 µM
- MIC (Mycobacterium avium; Mycobacterium avium, Experiment 2, three replicate columns, read-out: MIC (µg/ml) Mycobacterium avium): > 109 µg/mL
- MIC (Mycobacterium avium; Mycobacterium avium, mean ± SD, read-out: MIC Mycobacterium avium): > 50 µM
- Supplementary Figure 2 dose-response value, replicating H37Rv cells ([2]; Conc. 0.0488281 µM): 104.399 and 96.7961 and 102.12
- Supplementary Figure 2 dose-response value, replicating H37Rv cells ([2]; Conc. 0.0976562 µM): 93.8283 and 89.4675 and 92.0871
- Supplementary Figure 2 dose-response value, replicating H37Rv cells ([2]; Conc. 0.195312 µM): 90.4271 and 81.4889 and 87.4903
- Supplementary Figure 2 dose-response value, replicating H37Rv cells ([2]; Conc. 0.390625 µM): 51.3931 and 36.6199 and 50.2013
- Supplementary Figure 2 dose-response value, replicating H37Rv cells ([2]; Conc. 0.78125 µM): -3.993 and -4.461 and -3.242
- Supplementary Figure 2 dose-response value, replicating H37Rv cells ([2]; Conc. 1.5625 µM): -4.627 and -5.471 and -5.181
- Supplementary Figure 2 dose-response value, replicating H37Rv cells ([2]; Conc. 3.125 µM): -6.152 and -6.465 and -5.866
- Supplementary Figure 2 dose-response value, replicating H37Rv cells ([2]; Conc. 6.25 µM): -7.417 and -8.76 and -6.686
- Supplementary Figure 2 dose-response value, replicating H37Rv cells ([2]; Conc. 25 µM): -8.655 and -4.856 and -8.241
- Supplementary Figure 2 dose-response value, replicating H37Rv cells ([2]; Conc. 50 µM): -5.541 and -9.178 and -8.98
- Supplementary Figure 2 dose-response value, replicating H37Rv cells ([2]; Conc. 100 µM): -7.259 and -9.127 and -7.68
- DC50 [3]: 8300 nM
- MIC (Enterobacter cloacae; Enterobacter cloacae, Gram negative, n = 3 well replicates): > 50 µM
- MIC (Enterobacter cloacae; Enterobacter cloacae, Gram-Negative Bacteria, replicates 1-3): > 109 µg/mL
- MIC (Enterobacter cloacae; Gram-Negative Bacteria, replicates 1-3, listed as 8 (UdSBI-0545)): >50 µM
- Hepatocyte Human [4]: 12 %Qh
- Kd ([5]; individual measurements (source data), listed as 8 (UdSBI-0545), read-out: KD ClpC1-NTD): 0.325 nM and 0.439 nM and 0.567 nM and 0.381 nM
- Kd ([5]; read-out: ClpC1-NTD KD Mean ± SD): 0.4 ± 0.1 nM
- MIC (Enterococcus faecium; Enterococcus faecium, Gram positive, n = 3 well replicates): > 50 µM
- MIC (Enterococcus faecium; Enterococcus faecium, Gram-Positive Bacteria, replicates 1-3): > 109 µg/mL
- MIC (Enterococcus faecium; Gram-Positive Bacteria, replicates 1-3, listed as 8 (UdSBI-0545)): >50 µM
